Measurements from patent US20020177625A1, “Class of glaucoma drugs to enhance aqueous humor outflow and lower intra-ocular pressure” (The Regents of the University of California, a California …, priority 2001, published 2002).
“Also recorded” adds a separate entry of the source.

Tests used:
human TM cells [1] = assay: Whole cell patch clamp ion conductances of human TM cells; type: cell-based; settings: human TM cells
Experimental: Further studies conducted with agents known to block Cl and K channels attenuate the swelling-activated regulatory volume decrease in TM cells and niflumic acid reduces both cell volume and intracellular [Cl] of TM cells. In these studies, human TM cells were cultured from donor eyes and used between passages three and eight. Routine whole cell patch clamp methods were used to assess conductances of TM cells in isotonic (290 mOsm) and hypotonic (230 mOsm) media, with or without NPPB, DIDS, TEA or niflumic acid. Conductances were determined from current/voltage plots, generated using a ramp protocol. […] The reversal potential observed in the presence of hypotonic medium was close to the calculated reversal potential for Cl. Switching to an external medium containing reduced Cl shifted the reversal potential toward that calculated for the low Cl medium. Treating the TM cells with the Cl channel blocker NPPB (100 μM) abolished the swelling-activated conductance in a manner reversed by subsequent washout of NPPB. […] Finally, treatment of the cells with the K channel blocker TEA (1 mM) also abolished the niflumic acid-activated TM cell conductance.
Human TM and SC cells grown to subconfluence are gently trypsinized on the day of the experiment and immediately exposed to trypsin-neutralizing solution and then allowed to settle onto standard square (22×22-mm) glass coverslips for 30 minutes before use. Routine patch clamp methods were used as described previously Barakat, A. I., et al., Circulation Research, 85: 820-828, 1999; Hamill, O. P. et al., Pflügers Archives, 391: 85-100, 1981; Mauro, T. et al., J of Invest. Dermatology, 105: 203-208, 1995; Pappone, P. A. et al., J. of Physiology, 306:377-410, 1980; Pappone, P. A. et al., J of Gen. Physiology, 106: 231-258, 1995; Pappone, P. A. et al., Amer. J. of Physiology: Cell Physiology, 264: C1014-C1019, 1993; Wilson, S. M. et al., J. of Gen. Physiology, 113: 125-138, 1999. Using the whole cell patch clamp mode, conductances were assessed for isotonic and hypotonic media. By assessing current/voltage (I/V) relationships and reversal potentials for the TM and SC cells while using specific concentrations of Cl in the pipette and bath media, the nature of the conductances observed can be determined.
Whole cell currents were measured at room temperature in a Warner recording/perfusion chamber (Warner Instrument Corp.) using standard whole-cell patch clamp techniques as described previously, Lucero, M. T. et al., J. of Gen. Physiology, 95:523-544, 1999. Thick-walled borosilicate capillaries (Sutter Instruments, Inc., Novato, Calif.) were used to manufacture pipettes with resistances of 3 to 5 MW. The voltage offset between the patch pipette and the bath solution were nulled immediately before patch formation. An agar bridge containing […] KCl was used to ground the bath solution. Voltages were recorded from a patch-clamp amplifier (AXOPATCH 200A, Axon Instruments). Data was collected on a Macintosh personal computer using Pulse+Pulsefit software (HEKA Elektronik). Whole-cell currents were recorded from single (sub confluent) cells with membrane capacitances nulled through the patch-clamp amplifier. The voltage ramp protocol included a voltage step from the holding potential to +60 mV for 40 ms followed by a ramp to −100 mV over a period of 400 ms followed by a return to the holding potential. During the protocol, voltage ramps were conducted once every 5 seconds for 10 minutes, yielding 120 traces. Conductances were computed by taking the derivative of a least-squares straight line fit to the I-V data plots using Igor Pro Software (Wavemetrics, Inc.). In cases in which the I-V plots are not linear over the entire voltage ramp (as in FIGS. 6AB), computation of the whole-cell conductance were restricted to a linear range, typically 0 to +60 mV. […]

human TM cells [2] = assay: Regulatory volume decrease (RVD) of human TM cells in hypotonic medium (electronic cell sizing); type: cell-based; settings: hypotonic medium (200 mOsm), agent at 1 mM
Experimental: (§1) By the second method, TM cells were trypsinized briefly in Ca-free medium, then rinsed with medium containing trypsin inhibitor and suspended in Hepes MEM. Mean cell volumes were then analyzed by electronic cell sizing on a COULTER COUNTER™ radioassay (Model ZM) with channelizer (C256), using at least 50,000 cells per data point and an orifice diameter of 140 μm. Aliquots of suspended cells were diluted into Hepes MEM containing the tonicity and/or agents to be evaluated. Mean cell volumes of each suspension aliquot were followed over time, starting at 1 minute after addition of cells to the assay media. Cell suspensions were maintained at 37° C. throughout the assay period. Absolute volumes (picoliters/cell) were calculated from distribution curves of cell diameter, using a standard curve generated by polystyrene latex beads of known diameter.
In FIG. 7A, cells were exposed to isotonic medium (300 mOsm) or to hypotonic medium (200 mOsm)±1 mM DPC (diphenylamine carboxylate). Cell volume was assessed by COULTER COUNTER™ electronic cell sizing over the time course shown, using TM cells in suspension. […] Data represent means of two experiments, error values shown are SEM, n=4 (two separate RVD runs per experiment).
Data represent means of two experiments, error values shown are SEM, n=4 (two separate RVD runs per experiment).

human TM cells [3] = assay: Intracellular volume of human TM cells (14C-urea/14C-sucrose water space or COULTER COUNTER electronic cell sizing), isotonic medium; type: cell-based; settings: for TM cell volume: hormones and intracellular regulators acting on the co-transporter; for reduction in intracellular volume: human TM cells, 10 μM bumetamide, isotonic conditions
Experimental: The intracellular volume of human and bovine TM cells was evaluated by two methods: 1) radioisotopic evaluation of TM monolayer intracellular water space using ^14C-urea and ^14C-sucrose as markers of total and extracellular space, respectively; and 2) electronic cell sizing of suspended TM cells, using a COULTER COUNTER™ assay (Coulter Electronics, Ltd., Hialeah, Fla.). Details of these methods have been described previously by O'Donnell (O'Donnell, M. E., supra, 1993) the entirety of which is incorporated herein by reference.
By the first method, cell monolayers were preequilibrated for 30 minutes in Hepes MEM at 37° C. in an air atmosphere, then incubated for 20 minutes in Hepes MEM containing 0 or 10 μM bumetamide, ethacrynic acid, or other agents to be tested, and finally incubated for 10 minutes in the same medium containing either ^14C-urea or ^14C-sucrose (both at 1 μCi/ml). Monolayers were then rinsed with isotonic ice-cold MgCl2 and radioactivity of SDS extracts determined by liquid scintillation. Specific activities (counts per minute/ml) of ^14C-urea and ^14C-sucrose in the assay medium were determined and used to calculate water space associated with trapped radioactivity (expressed as μl/mg protein. Intracellular volume was calculated as the difference between the water space determined for ^14C-urea (a marker for intracellular plus trapped extracellular space) and ^14C-sucrose (a marker for trapped extracellular space).
as §1
Human TM cells were exposed to isotonic medium ±niflumic acid (10 or 100 μM)±10 μM bumetamide. Cell volume was assessed by COULTER COUNTER™ electronic cell sizing over the time course shown, using TM cells in suspension. Note that niflumic acid (NA) alone decreases volume of the TM cells and that exposing the cells to NA plus bumetamide causes a further decrease in TM cell volume. Data represent means of two experiments (all conditions shown tested in both experiments).

Na—K—Cl co-transporter = target: T1, Na—K—Cl co-transporter (Homo sapiens, UniProt P55011); assay: Na—K—Cl co-transport measured as bumetamide-sensitive K influx (86Rb tracer) in human TM cell monolayers; type: cell-based
T1 construct: endogenous in cells; host or cells: cultured human trabecular meshwork (TM) cells, normal or glaucomatous donors
T1 sequence (P55011 1-1212): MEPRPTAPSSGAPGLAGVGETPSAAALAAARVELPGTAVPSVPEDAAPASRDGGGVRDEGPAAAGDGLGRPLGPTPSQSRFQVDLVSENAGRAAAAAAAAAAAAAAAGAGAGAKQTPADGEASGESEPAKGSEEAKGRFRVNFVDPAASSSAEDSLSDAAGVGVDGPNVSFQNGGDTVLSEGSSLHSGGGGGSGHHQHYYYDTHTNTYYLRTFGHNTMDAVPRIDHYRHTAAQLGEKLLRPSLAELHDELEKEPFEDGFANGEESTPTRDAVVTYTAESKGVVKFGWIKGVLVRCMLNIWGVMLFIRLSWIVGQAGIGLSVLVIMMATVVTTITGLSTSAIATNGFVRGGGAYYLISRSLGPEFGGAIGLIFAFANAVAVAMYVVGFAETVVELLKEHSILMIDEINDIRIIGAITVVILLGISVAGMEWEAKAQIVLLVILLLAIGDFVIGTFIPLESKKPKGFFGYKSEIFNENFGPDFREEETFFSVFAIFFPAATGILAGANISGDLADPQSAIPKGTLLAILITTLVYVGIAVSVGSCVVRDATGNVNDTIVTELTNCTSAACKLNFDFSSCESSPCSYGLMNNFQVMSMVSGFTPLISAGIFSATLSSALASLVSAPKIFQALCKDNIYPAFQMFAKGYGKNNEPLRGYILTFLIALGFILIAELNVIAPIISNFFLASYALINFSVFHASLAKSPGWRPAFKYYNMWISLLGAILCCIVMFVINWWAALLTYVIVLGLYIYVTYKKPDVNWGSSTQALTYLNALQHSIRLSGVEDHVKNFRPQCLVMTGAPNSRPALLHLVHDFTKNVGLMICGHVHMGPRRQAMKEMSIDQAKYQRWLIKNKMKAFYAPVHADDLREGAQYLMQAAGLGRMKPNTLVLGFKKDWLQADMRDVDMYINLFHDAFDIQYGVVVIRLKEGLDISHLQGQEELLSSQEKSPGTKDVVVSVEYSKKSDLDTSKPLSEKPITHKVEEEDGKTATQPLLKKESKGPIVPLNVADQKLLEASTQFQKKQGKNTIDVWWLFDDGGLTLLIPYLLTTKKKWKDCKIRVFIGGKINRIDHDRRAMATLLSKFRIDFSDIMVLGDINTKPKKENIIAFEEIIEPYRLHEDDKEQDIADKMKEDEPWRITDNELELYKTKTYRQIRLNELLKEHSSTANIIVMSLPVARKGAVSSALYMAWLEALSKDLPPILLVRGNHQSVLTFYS
Experimental: Na—K—Cl co-transport was measured as ouabain-insensitive, bumetamide-sensitive potassium influx, using ^86Rb as a tracer for potassium. […] The assay medium also contained ^86Rb (1 μCi/ml) (Dupont New England Nuclear, Boston, Mass.). The assay was terminated by rinsing the wells with ice-cold isotonic MgCl2, then extracting the contents with 0.2% sodium dodecyl sulfate (SDS), and determining the amount of radioactive contents by liquid scintillation. Osmolarities of all preincubation and assay media were verified by osmometry (Model 3W2, Advanced Instruments, Norwood, Mass.).
The cells were pretreated with Hepes-buffered minimal essential medium (MEM) ±10 μM bumetamide ±1 mM ouabain for 5 min, then assayed for 5 min in the same media plus ^86Rb. […] Data are means ±SEM, n=12.
Na—K—Cl co-transport activity of glaucomatous human TM cells was assessed as ouabain-insensitive, bumetamide-sensitive K influx, using ^86Rb as a tracer for K, as described previously. TM cells were preincubated for 5 minutes in a Hepes-buffered MEM containing 0 or 10 μM bumetamide in the presence of 1 mM ouabain, followed by a 5 minute assay in media of identical composition except that they also contained ^86Rb. […] Data are mean values ±SEM in seven normal TM cultures (donor age range, 38-68 years, n=12 in each cell culture) and in seven glaucomatous cultures (donor age range 41-75 years, n=7 in each cell culture).
Human TM cells were equilibrated in Hepes-buffered MEM for 30 minutes and then pretreated for 5 minutes in media containing 1 mM ouabain, 10 or 0 μM bumetamide, and 0.3 μM to 1 mM niflumic acid (NA). Cells were then assayed for bumetamide-sensitive K influx for 5 minutes in media identical to the pretreatment media but also containing ^86Rb (1 μCi/ml). […] Dashed line indicates control level of Na—K—Cl co-transport. Data are means ±SEM of at least 4 determinations from 3 experiments.

[4] = system: perfused human anterior chambers; assay: Outflow facility of perfused human anterior chambers; settings: perfused with bumetamide
Source text: The effect is expected to be transient because after the initial cell shrinkage, the co-transporter is activated to restore volume in the TM cells and, thus, the cell shrinkage is only transient. […] Here again, the cells rapidly respond to altered volume, in this case by activating ion efflux pathways to decrease volume of the cells to normal.

O=C(O)c1cc([N+](=O)[O-])ccc1NCCCc1ccccc1 [NPPB]
swelling-activated (hypotonic medium-induced) ion conductance (human TM cells [1]; NPPB 100 μM): blocked; also recorded: abolished

NS(=O)(=O)c1cc(C(=O)O)c(NCc2ccco2)cc1Cl [furosemide]
regulatory volume decrease (RVD) (human TM cells [2]): no effect

NC[C@H](O)c1ccc(O)c(O)c1 [norepinephrine]
TM cell volume (human TM cells [3]): reduce

CC[N+](CC)(CC)CC [TEA, tetraethylammonium]
niflumic acid-activated TM cell conductance (human TM cells [1]; niflumic acid 100 μM plus K channel blocker TEA 1 mM): abolished
regulatory volume decrease (RVD) (human TM cells [2]): diminished

O=C(O)c1ccccc1Nc1ccccc1 [DPC, diphenylamine carboxylate]
regulatory volume decrease (RVD) (human TM cells [2]): attenuated

CCCCNc1cc(C(=O)O)cc(S(N)(=O)=O)c1Oc1ccccc1 [bumetamide]
reduction in intracellular volume (human TM cells [3]; 30 minute exposure): 12±4%
reduction in intracellular volume (human TM cells [3]; 60 minute exposure): 25±6%
cell volume of normal and glaucomatous TM cells (human TM cells [3]; normal and glaucomatous human TM cells exposed to bumetamide): decreased
total K influx in TM cells (Na—K—Cl co-transporter; human TM cells, 10 μM bumetamide, 86Rb tracer): blocks a substantial portion
outflow facility [4]: sustained elevation

O=S(=O)(O)c1cc(N=C=S)ccc1C=Cc1ccc(N=C=S)cc1S(=O)(=O)O [DIDS, 4,4′-diisothiocyanostilbene-2,2′-disulfonic acid]
swelling-activated (hypotonic medium-induced) ion conductance (human TM cells [1]; DIDS 1 mM): does not increase; also recorded: abolished; also recorded: blocked
regulatory volume decrease (RVD) (human TM cells [2]): attenuated; also recorded: reduced

Nc1ncnc2c1ncn2[C@@H]1O[C@@H]2COP(=O)(O)O[C@H]2[C@H]1O [cyclic AMP]
TM cell volume (human TM cells [3]): reduce
inhibition of Na—K—Cl co-transporter of glaucomatous TM cells (Na—K—Cl co-transporter; glaucomatous human TM cells): insensitive
